{
  "source": "patent US20080009025A1",
  "about": "“PROTEIN KINASE REGULATION” (priority 1999, published 2008)",
  "key": {"PDK1 [1]": {"biological_target": "T1, PDK1 (Homo sapiens, UniProt O15530)", "T1 sequence (O15530 1-556)": "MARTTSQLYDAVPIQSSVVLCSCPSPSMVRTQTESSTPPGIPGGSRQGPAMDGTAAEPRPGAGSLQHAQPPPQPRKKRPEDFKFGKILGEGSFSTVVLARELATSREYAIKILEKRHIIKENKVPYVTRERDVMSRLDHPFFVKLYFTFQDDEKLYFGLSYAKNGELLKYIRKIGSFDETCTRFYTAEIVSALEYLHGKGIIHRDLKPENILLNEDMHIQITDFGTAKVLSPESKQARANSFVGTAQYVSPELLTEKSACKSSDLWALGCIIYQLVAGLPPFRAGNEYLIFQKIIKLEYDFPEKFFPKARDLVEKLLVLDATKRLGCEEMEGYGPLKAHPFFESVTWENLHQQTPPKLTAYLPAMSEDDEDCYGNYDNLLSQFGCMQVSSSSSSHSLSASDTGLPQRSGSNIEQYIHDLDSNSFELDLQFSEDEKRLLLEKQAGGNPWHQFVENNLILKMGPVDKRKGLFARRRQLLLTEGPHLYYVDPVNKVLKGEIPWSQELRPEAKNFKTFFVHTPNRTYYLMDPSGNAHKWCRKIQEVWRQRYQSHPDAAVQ", "test": "Phosphorylation of p70 S6K at Thr412 by PDK1 in vitro (T412-P immunoblot)", "format": "biochemical", "set-up": "made in house; host or cells: 293 cells or E. coli", "settings": "peptide 4 μM", "method": "FIG. 2. PDK1 phosphorylates p70 S6K at Thr412 in vitro and this is inhibited by PIF. 0.5 μg of either wild type GST-p70 S6K-T2 (wt), T252A-GST-p70 S6K-T2 (252A) or T412A-GST-p70 S6K-T2 (412A) were incubated for 90 min at 30° C. with MgATP in the presence or absence of wild type (wt) or kinase-dead (kd) GST-PDK1 expressed in either 293 cells or bacteria in the presence (+) or absence (−) of the wild type PIF peptides (4 μM) in a final volume of 20 μl. The reactions were terminated by making the solutions 1% in SDS, the samples were subjected to SDS-polyacylamide gel electrophoresis, and the phosphorylation of p70 S6K at Thr412 was assessed by immunoblotting with the T-412P antibody. Similar results were obtained in three separate experiments.\nImmunoblotting for dephosphorylated and Thr412-phosphorylated p70 S6 kinase. Cell lysates were made 1% SDS and the indicated amounts of protein were subjected to SDS/Polyacrylamide gel electrophoresis, subsequently transferred to nitrocellulose and immunoblotted using the indicated monoclonal antibody or the T412-P phospho-specific antibody (0.4 μg/ml) in 50 mM Tris/HCl pH7.5, 0.15M NaCl, 0.5% (by vol) Tween and 10% (by mass) skimmed milk. Detection was performed using the enhanced chemiluminescence reagent (Amersham Pharmacia Biotech)."}, "PDK1 [2]": {"tested_on": "PDK1", "test": "Activation of AGC kinase substrates by PDK1 (Crosstide assay)", "format": "biochemical, human", "settings": "for inhibition of the activation of S6K1-T2[T412E] and SGK1[T422D] by PDK1 PIF pocket mutants: PDK1[K115A], [I119A], [Q150A], [L155A]", "method": "FIG. 20. Effect of PIFtide on the activation of S6K1 and SGK1 by PDK1 PIF pocket mutants (155A, 115A, 119A, 150A). GST-PDK1, GST-PDK1 L155E, 155A, 115A, 119A and 150A were tested for their ability to activate His-S6K1 412E and GST-SGK1 422D. The phosphorylation and activation of substrates was performed as described in FIG. 17. When PIFtide was included in the reaction, it was pre-incubated on ice for ˜15 min until the reaction was initiated with the addition of ATP-Mg.\nActivation of AGC kinase PDK1 substrates. Phosphorylation reactions were carried out as above except that non-radioactive ATP replaced [γ-^32P]ATP. Following 10 min at 30° C., cocktail (30 μl) containing 50 mM Tris-HCl pH 7.5, 0.1% (by vol) 2-mercaptoethanol, 10 mM magnesium chloride, […], 0.5 μM microcystin-LR and 100 μM peptide substrate crosstide (GRPRTSSFAEG) and [γ-^32P]ATP (˜600 c.p.m./pmol). Reactions were stopped by the addition of 25 μl of 0.2 M EDTA pH 8.0, spotted onto P81 phosphocellulose paper, washed and analysed as described for the assay of MAP kinase. The amount of PDK1 was in the assay was varied so that the assay was in the linear range. One unit of activity is deficed as phosphorylation 1 nmol of substrate in 1 min."}},
  "note": "Where a SMILES comes first, the peptide text is derived from it.",
  "data": [
    {"compound": "CC[C@H](C)[C@H](NC(=O)[C@H](Cc1ccc(O)cc1)NC(=O)[C@H](CC(=O)O)NC(=O)[C@H](Cc1ccccc1)NC(=O)[C@H](CC(=O)O)NC(=O)[C@H](CCCNC(=N)N)NC(=O)[C@H](Cc1ccccc1)NC(=O)[C@H](CCSC)NC(=O)[C@H](CCC(=O)O)NC(=O)[C@H](CCC(N)=O)NC(=O)[C@H](CCC(=O)O)NC(=O)[C@H](CCC(=O)O)NC(=O)[C@H](CCC(=O)O)NC(=O)[C@H](CO)NC(=O)[C@H](CC(C)C)NC(=O)[C@@H](NC(=O)[C@H](CCCNC(=N)N)NC(=O)[C@@H]1CCCN1C(=O)[C@H](CCC(=O)O)NC(=O)[C@@H](N)CCCNC(=N)N)[C@@H](C)CC)C(=O)N[C@@H](C)C(=O)N[C@@H](CC(=O)O)C(=O)N[C@@H](Cc1c[nH]c2ccccc12)C(=O)N[C@@H](CS)C(=O)O", "note": "[PIFtide] (H-REPRILSEEEQEMFRDFDYIADWC-OH; N-terminus and C-terminus assumed)", "values": [
      {"measurement": "effect on phosphorylation of p70 S6K at Thr412 by PDK1", "setting": "PDK1 [1]", "value": "prevented"},
      {"measurement": "inhibition of the activation of S6K1[T412E] by wild type PDK1", "setting": "PDK1 [2]; 2 μM PIFtide", "value": "> 20", "unit": "fold"},
      {"measurement": "inhibition of the activation of S6K1-T2[T412E] and SGK1[T422D] by PDK1 PIF pocket mutants", "setting": "PDK1 [2]; 2 μM PIFtide", "value": "~50", "unit": "%"},
      {"measurement": "inhibition of the activation of S6K1-T2[T412E] and SGK1[T422D] by PDK1 PIF pocket mutants", "setting": "PDK1 [2]; 35 μM PIFtide", "value": "over 95%"},
      {"measurement": "PDK1's ability to phosphorylate and activate SGK1, ΔPH-PKBα, S6K1[T412E], SGK1[T422D] and ΔPH-PKBα[S473D]", "setting": "PDK1 [2]; in the presence of PIFtide", "value": "markedly inhibited"}
    ]}
  ]
}
